Results on 1 molecule are retold here after article PMC9495423, “Identification of the Natural Steroid Sapogenin Diosgenin as a Direct Dual-Specific RORα/γ Inverse Agonist” (Biomedicines, 2022).

In one assay the target is T1, RORγ (Homo sapiens, UniProt P51449).
T1 construct: gene RORC; also full-length RORγ transcript variant 1
T1 sequence (P51449 265-507 limits assumed): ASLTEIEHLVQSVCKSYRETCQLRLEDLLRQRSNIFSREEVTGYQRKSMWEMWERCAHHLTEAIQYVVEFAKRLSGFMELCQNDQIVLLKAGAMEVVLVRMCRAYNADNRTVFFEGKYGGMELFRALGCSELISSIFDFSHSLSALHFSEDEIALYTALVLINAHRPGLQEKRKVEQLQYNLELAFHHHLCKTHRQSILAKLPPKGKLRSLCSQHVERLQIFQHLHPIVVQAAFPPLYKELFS
The experiment in a line: RORγ-Gal4 luciferase reporter assay in HEK293 cells (inverse agonism); full-length RORγ-RORE assay IC50 […]. It is filed as cell-based.

Another assay has as its target T2, RORα (Homo sapiens, UniProt P35398).
T2 construct: gene RORA; RORα-Gal4
T2 sequence (P35398 1-523): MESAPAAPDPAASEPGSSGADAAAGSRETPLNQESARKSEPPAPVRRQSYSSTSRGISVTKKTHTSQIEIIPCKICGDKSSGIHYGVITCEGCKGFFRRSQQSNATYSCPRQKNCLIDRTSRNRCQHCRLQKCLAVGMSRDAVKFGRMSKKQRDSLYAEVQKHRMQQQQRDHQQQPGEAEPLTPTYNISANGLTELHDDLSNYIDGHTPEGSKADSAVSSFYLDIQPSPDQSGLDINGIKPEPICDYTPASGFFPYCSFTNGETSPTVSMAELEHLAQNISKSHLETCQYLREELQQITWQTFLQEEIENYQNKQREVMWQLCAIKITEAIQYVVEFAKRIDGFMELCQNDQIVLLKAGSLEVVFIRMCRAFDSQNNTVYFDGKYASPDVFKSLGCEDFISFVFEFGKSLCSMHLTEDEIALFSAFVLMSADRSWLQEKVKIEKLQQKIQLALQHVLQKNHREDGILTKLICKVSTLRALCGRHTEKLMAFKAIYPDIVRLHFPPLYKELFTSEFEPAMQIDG
The experiment in a line: RORα-Gal4 luciferase reporter assay in HEK293 cells (inverse agonism). It counts as cell-based.

SMILES strings stand for the structures.

For `C[C@@H]1CC[C@@]2(OC1)O[C@H]1C[C@H]3[C@@H]4CC=C5C[C@@H](O)CC[C@]5(C)[C@H]4CC[C@]3(C)[C@H]1[C@@H]2C` [diosgenin], the results for the IC50 on RORγ and on RORα were 1730 nM and 2170 nM, respectively.
